# Measurements taken from the supplement of paper PMC10307832.
# Tests used:
# Experiment in all cases: relative viability (nuclei count vs DMSO), 5 days (fraction); higher = more cells survive
# CAL-12T = test system: CAL-12T
# In short: (§1)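 Lung cancer cell lines in 1536-well plates were dosed by pin tool the day after seeding, either with one drug alone or with a fixed anchor-drug dose plus five library-drug doses (not always all listed) in √10 steps. After 5 days, cells were fixed and their nuclei stained in one step (final 0.05% Triton X-100, 1% formaldehyde, 1 ug/ml Hoechst), then counted on 4× images. Relative viability is the nuclei count in treated wells divided by that in vehicle wells. Values are medians of duplicate plates.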
# HOP-62 = test system: HOP-62
# In short: as §1
# NCI-H2009 = test system: NCI-H2009
# In short: as §1
# NCI-H727 = test system: NCI-H727
# In short: as §1
# COR-L 105 = test system: COR-L 105
# In short: as §1
# LCLC-97TM1 = test system: LCLC-97TM1
# In short: as §1
# BEN = test system: BEN
# In short: as §1
# LC-2-ad = test system: LC-2-ad
# In short: as §1
# HARA = test system: HARA
# In short: as §1
# PC-3 [JPC-3] = test system: PC-3 [JPC-3]
# In short: as §1
# HCC-827 = test system: HCC-827
# In short: as §1
# LU99A = test system: LU99A
# In short: as §1
# LXF-289 = test system: LXF-289
# In short: as §1
# NCI-H2126 = test system: NCI-H2126
# In short: as §1
# HCC-15 = test system: HCC-15
# In short: as §1
# HCC-366 = test system: HCC-366
# In short: as §1
# COR-L23 = test system: COR-L23
# In short: as §1
# NCI-H1993 = test system: NCI-H1993
# In short: as §1
# PC-14 = test system: PC-14
# In short: as §1
# HCC-44 = test system: HCC-44
# In short: as §1
# NCI-H2087 = test system: NCI-H2087
# In short: as §1
smiles,measurement,setting,value
O=c1[nH]c2ccccc2n1C1CCN(CCCC(c2ccc(F)cc2)c2ccc(F)cc2)CC1 [Pimozide] + CC(C)C[C@H](NC(=O)[C@H](Cc1ccccc1)NC(=O)c1cnccn1)B(O)O [Bortezomib] (partner 0.002 µM),relative viability,CAL-12T; first compound 0.08 µM,0.875
same,relative viability,CAL-12T; first compound 0.253 µM,0.979
same,relative viability,CAL-12T; first compound 0.8 µM,0.821
same,relative viability,CAL-12T; first compound 2.53 µM,0.87
same,relative viability,CAL-12T; first compound 8 µM,0.828
same,relative viability,HOP-62; first compound 0.08 µM,0.935
same,relative viability,HOP-62; first compound 0.253 µM,0.889
same,relative viability,HOP-62; first compound 2.53 µM,0.749
same,relative viability,HOP-62; first compound 8 µM,1.02
same,relative viability,NCI-H2009; first compound 0.08 µM,0.999
same,relative viability,NCI-H2009; first compound 0.253 µM,0.999
same,relative viability,NCI-H2009; first compound 0.8 µM,0.879
same,relative viability,NCI-H2009; first compound 2.53 µM,0.888
same,relative viability,NCI-H2009; first compound 8 µM,0.769
same,relative viability,NCI-H727; first compound 0.08 µM,0.729
same,relative viability,NCI-H727; first compound 0.253 µM,0.788
same,relative viability,NCI-H727; first compound 0.8 µM,0.884
same,relative viability,NCI-H727; first compound 2.53 µM,0.733
same,relative viability,NCI-H727; first compound 8 µM,0.868
same,relative viability,COR-L 105; first compound 0.253 µM,0.749
same,relative viability,COR-L 105; first compound 0.8 µM,0.659
same,relative viability,COR-L 105; first compound 2.53 µM,0.672
same,relative viability,COR-L 105; first compound 8 µM,0.479
same,relative viability,LCLC-97TM1; first compound 0.08 µM,0.526
same,relative viability,LCLC-97TM1; first compound 0.253 µM,0.637
same,relative viability,LCLC-97TM1; first compound 0.8 µM,0.574
same,relative viability,LCLC-97TM1; first compound 2.53 µM,0.353
same,relative viability,LCLC-97TM1; first compound 8 µM,0.616
same,relative viability,BEN; first compound 0.08 µM,0.678
same,relative viability,BEN; first compound 0.253 µM,0.81
same,relative viability,BEN; first compound 0.8 µM,0.788
same,relative viability,BEN; first compound 2.53 µM,0.867
same,relative viability,BEN; first compound 8 µM,0.976
same,relative viability,LC-2-ad; first compound 0.08 µM,1.09
same,relative viability,LC-2-ad; first compound 0.253 µM,0.927
same,relative viability,LC-2-ad; first compound 0.8 µM,0.935
same,relative viability,LC-2-ad; first compound 2.53 µM,1.03
same,relative viability,LC-2-ad; first compound 8 µM,0.996
same,relative viability,HARA; first compound 0.08 µM,0.857
same,relative viability,HARA; first compound 0.253 µM,1.16
same,relative viability,HARA; first compound 0.8 µM,0.937
same,relative viability,HARA; first compound 2.53 µM,1.17
same,relative viability,HARA; first compound 8 µM,1.06
same,relative viability,PC-3 [JPC-3]; first compound 0.253 µM,0.803
same,relative viability,PC-3 [JPC-3]; first compound 0.8 µM,0.726
same,relative viability,PC-3 [JPC-3]; first compound 2.53 µM,0.884
same,relative viability,PC-3 [JPC-3]; first compound 8 µM,0.667
same,relative viability,HCC-827; first compound 0.253 µM,0.943
same,relative viability,HCC-827; first compound 0.8 µM,0.918
same,relative viability,HCC-827; first compound 2.53 µM,0.982
same,relative viability,HCC-827; first compound 8 µM,1.04
same,relative viability,LU99A; first compound 0.08 µM,1.17
same,relative viability,LU99A; first compound 0.253 µM,0.978
same,relative viability,LU99A; first compound 0.8 µM,1.09
same,relative viability,LU99A; first compound 2.53 µM,1.09
same,relative viability,LU99A; first compound 8 µM,0.929
same,relative viability,LXF-289; first compound 0.08 µM,0.989
same,relative viability,LXF-289; first compound 0.253 µM,0.966
same,relative viability,LXF-289; first compound 0.8 µM,0.917
same,relative viability,LXF-289; first compound 2.53 µM,0.94
same,relative viability,LXF-289; first compound 8 µM,0.865
same,relative viability,NCI-H2126; first compound 0.08 µM,1.14
same,relative viability,NCI-H2126; first compound 0.253 µM,1.1
same,relative viability,NCI-H2126; first compound 0.8 µM,1.1
same,relative viability,NCI-H2126; first compound 2.53 µM,1.11
same,relative viability,NCI-H2126; first compound 8 µM,1.05
same,relative viability,HCC-15; first compound 0.08 µM,1.12
same,relative viability,HCC-15; first compound 0.253 µM,0.994
same,relative viability,HCC-15; first compound 0.8 µM,0.848
same,relative viability,HCC-15; first compound 2.53 µM,0.963
same,relative viability,HCC-15; first compound 8 µM,0.908
same,relative viability,HCC-366; first compound 0.08 µM,1.01
same,relative viability,HCC-366; first compound 0.253 µM,0.999
same,relative viability,HCC-366; first compound 0.8 µM,0.985
same,relative viability,HCC-366; first compound 2.53 µM,1.03
same,relative viability,HCC-366; first compound 8 µM,1.01
same,relative viability,COR-L23; first compound 0.08 µM,0.965
same,relative viability,COR-L23; first compound 0.253 µM,0.945
same,relative viability,COR-L23; first compound 0.8 µM,0.956
same,relative viability,COR-L23; first compound 2.53 µM,0.967
same,relative viability,COR-L23; first compound 8 µM,0.964
same,relative viability,NCI-H1993; first compound 0.08 µM,0.89
same,relative viability,NCI-H1993; first compound 0.253 µM,1.03
same,relative viability,NCI-H1993; first compound 0.8 µM,0.986
same,relative viability,NCI-H1993; first compound 2.53 µM,1.07
same,relative viability,NCI-H1993; first compound 8 µM,1.01
same,relative viability,PC-14; first compound 0.08 µM,0.855
same,relative viability,PC-14; first compound 0.253 µM,0.812
same,relative viability,PC-14; first compound 0.8 µM,0.844
same,relative viability,PC-14; first compound 2.53 µM,0.912
same,relative viability,PC-14; first compound 8 µM,0.81
same,relative viability,HCC-44; first compound 0.08 µM,0.874
same,relative viability,HCC-44; first compound 0.253 µM,0.788
same,relative viability,HCC-44; first compound 0.8 µM,0.856
same,relative viability,HCC-44; first compound 2.53 µM,0.975
same,relative viability,HCC-44; first compound 8 µM,0.877
same,relative viability,NCI-H2087; first compound 0.08 µM,0.86
same,relative viability,NCI-H2087; first compound 0.253 µM,0.815
same,relative viability,NCI-H2087; first compound 0.8 µM,0.764
same,relative viability,NCI-H2087; first compound 2.53 µM,0.765
same,relative viability,NCI-H2087; first compound 8 µM,0.585
